The target in the test is T1, human TGR5 (h-TGR5) (Homo sapiens, UniProt Q8TDU6).
T1 construct: expressed in transfected cells
T1 sequence (Q8TDU6 1-330): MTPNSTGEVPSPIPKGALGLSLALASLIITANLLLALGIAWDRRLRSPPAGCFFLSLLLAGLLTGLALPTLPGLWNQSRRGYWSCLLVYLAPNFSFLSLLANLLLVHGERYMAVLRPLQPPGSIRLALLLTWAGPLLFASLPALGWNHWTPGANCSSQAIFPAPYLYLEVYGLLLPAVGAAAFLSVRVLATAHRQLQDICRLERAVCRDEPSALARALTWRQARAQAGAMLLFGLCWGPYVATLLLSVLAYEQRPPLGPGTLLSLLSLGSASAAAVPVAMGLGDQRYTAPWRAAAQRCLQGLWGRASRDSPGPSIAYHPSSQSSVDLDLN
Nature of the test: TGR5/CRE-Luciferiase Assay (HEK 293 hTGR5/CRE-Luc cells). It is filed as cell-based. In outline:
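HEK293 cells stably carrying hTGR5 and a CRE-luciferase reporter were exposed to serially diluted compounds (diluted in DMEM with 5% DMSO) for 6 h. Cells were then lysed in luciferase buffer, luminescence was read, and EC50 values were derived from dose-response curves.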

[1] abbreviates: h-TGR5 CRE-Luc EC50, Table 1, read-out: CRE-Luc (EC50).

Molecules are shown by their SMILES. Where two headings read alike, the source gives them in different places.

Regarding `COc1cc(C(C)(C)c2cnc(SCC3CCN(CCO)CC3)n2-c2ccc(F)cc2)ccc1Cl` [2-[4-({[5-{1-[4-chloro-3-(methyloxy)phenyl]-1-methylethyl}-1-(4-fluorophenyl)-1H-imidazol-2-yl]thio}methyl)piperidin-1-yl]ethanol], the EC50 (in general, the concentration needed to bring the measured effect to its halfway point) under setting [1] fell in the range of 1000 to 10000 nM.
In the case of `CC(C)(c1ccc(F)c(F)c1)c1cnc(SCc2ccc(F)c(C(=O)O)c2)n1-c1ccc(F)cc1` [5-[({5-[1-(3,4-difluorophenyl)-1-methylethyl]-1-(4-fluorophenyl)-1H-imidazol-2-yl}thio)methyl]-2-fluorobenzoic acid], the EC50 under setting [1] was in the range of 100 to 1000 nM.
`CC(C)(c1ccc(Cl)c(Cl)c1)c1cnc(SCc2ccc(F)cc2C(=O)O)n1-c1ccc(F)cc1` [2-[({5-[1-(3,4-dichlorophenyl)-1-methylethyl]-1-(4-fluorophenyl)-1H-imidazol-2-yl}thio)methyl]-5-fluorobenzoic acid]: the EC50 under setting [1] was in the range of 100 to 1000 nM.
As to `CC(C)(c1ccc(Cl)c(Cl)c1)c1cnc(COc2ncc(C(F)(F)F)cc2Cl)n1-c1ccc(F)cc1` [3-chloro-2-[({5-[1-(3,4-dichlorophenyl)-1-methylethyl]-1-(4-fluorophenyl)-1H-imidazol-2-yl}methyl)oxy]-5-(trifluoromethyl)pyridine], the EC50 under setting [1] lay within 1000 to 10000 nM.
On the same count and under the same terms, the value for `CC(C)(c1ccc2c(c1)OCO2)c1cnc(SCc2c(F)cccc2Cl)n1-c1ccc(F)cc1` [5-[1-(1,3-benzodioxol-5-yl)-1-methylethyl]-2-{[(2-chloro-6-fluorophenyl)methyl]thio}-1-(4-fluorophenyl)-1H-imidazole] was under 100 nM; that for `CCN(CC)CCOc1cc(C(C)(C)c2cnc(SCc3c(F)cccc3Cl)n2-c2ccc(F)cc2)ccc1Cl` [2-[(2-chloro-5-{1-[2-{[(2-chloro-6-fluorophenyl)methyl]thio}-1-(4-fluorophenyl)-1H-imidazol-5-yl]-1-methylethyl}phenyl)oxy]-N,N-diethylethanamine] was 100 to 1000 nM; that for `CC(C)(c1ccc(Cl)c(Cl)c1)c1cnc(SCc2ccc(Cl)c(C(=N)N)c2)n1-c1ccc(F)cc1` [2-chloro-5-[({5-[1-(3,4-dichlorophenyl)-1-methylethyl]-1-(4-fluorophenyl)-1H-imidazol-2-yl}thio)methyl]benzenecarboximidamide] was 1000 to 10000 nM.
Turning to `COC(=O)c1cc(F)c(OCc2ncc(C(C)(C)c3ccc(Cl)c(Cl)c3)n2-c2ccc(F)cc2)c(Cl)c1` [methyl 3-chloro-4-[({5-[1-(3,4-dichlorophenyl)-1-methylethyl]-1-(4-fluorophenyl)-1H-imidazol-2-yl}methyl)oxy]-5-fluorobenzoate], the EC50 under setting [1] fell in the range of 100 to 1000 nM.
For the compound `CC(c1ncc(C(C)(C)c2ccc(Cl)c(Cl)c2)n1-c1ccc(F)cc1)S(=O)(=O)c1ccc(F)cc1Cl` (stereo not drawn) [2-{1-[(2-chloro-4-fluorophenyl)sulfonyl]ethyl}-5-[1-(3,4-dichlorophenyl)-1-methylethyl]-1-(4-fluorophenyl)-1H-imidazole], under setting [1], the EC50 lay within 1000 to 10000 nM.
Take `COc1ccc(C(C)(C)c2cnc(C(=O)Nc3ccc(Cl)c(Cl)c3)n2-c2ccc(F)cc2)cc1OC` [5-{1-[3,4-bis(methyloxy)phenyl]-1-methylethyl}-N-(3,4-dichlorophenyl)-1-(4-fluorophenyl)-1H-imidazole-2-carboxamide]: the EC50 under setting [1] was 1000 to 10000 nM.
Same read-out and setting: under `CC(C)(c1ccc(Cl)c(Cl)c1)c1cnc(CS(=O)(=O)c2ccc(F)cc2Cl)n1-c1ccc(F)cc1` [2-{[(2-chloro-4-fluorophenyl)sulfonyl]methyl}-5-[1-(3,4-dichlorophenyl)-1-methylethyl]-1-(4-fluorophenyl)-1H-imidazole] stands 1000 to 10000 nM; under `CC(C)(c1ccc(Cl)c(Cl)c1)c1cnc(C(O)CCc2ccc(Cl)cc2Cl)n1-c1ccc(F)cc1` (stereo not drawn) [3-(2,4-dichlorophenyl)-1-{5-[1-(3,4-dichlorophenyl)-1-methylethyl]-1-(4-fluorophenyl)-1H-imidazol-2-yl}propan-1-ol], 1000 to 10000 nM; under `CC(C)(c1ccc(Cl)c(Cl)c1)c1cnc(SCc2ccc(F)cc2C(N)=O)n1-c1ccc(F)cc1` [2-[({5-[1-(3,4-dichlorophenyl)-1-methylethyl]-1-(4-fluorophenyl)-1H-imidazol-2-yl}thio)methyl]-5-fluorobenzamide], 100 to 1000 nM.
The same measure, in the same setting: the value for `CC(C)(c1ccc(Cl)c(Cl)c1)c1cnc(SCc2cc(S(N)(=O)=O)ccc2Cl)n1-c1ccc(F)cc1` [4-chloro-3-[({5-[1-(3,4-dichlorophenyl)-1-methylethyl]-1-(4-fluorophenyl)-1H-imidazol-2-yl}thio)methyl]benzenesulfonamide] was 100 to 1000 nM; that for `CC(C)(O)c1cc(CSc2ncc(C(C)(C)c3ccc(Cl)c(Cl)c3)n2-c2ccc(F)cc2)ccc1F` [2-{5-[({5-[1-(3,4-dichlorophenyl)-1-methylethyl]-1-(4-fluorophenyl)-1H-imidazol-2-yl}thio)methyl]-2-fluorophenyl}propan-2-ol] was 100 to 1000 nM; that for `CC(C)(c1ccc(Cl)c(Cl)c1)c1cnc(COc2ccc3ncccc3c2)n1-c1ccc(F)cc1` [6-[({5-[1-(3,4-dichlorophenyl)-1-methylethyl]-1-(4-fluorophenyl)-1H-imidazol-2-yl}methyl)oxy]quinoline] was 100 to 1000 nM.
As to `CC(C)(c1ccc2nccnc2c1)c1nnc(SCc2ccc(Cl)c(-c3nnn[nH]3)c2)n1-c1ccc(F)cc1` [Example 46], under “HEK 293 hTGR5/CRE-Luc cells, 6 hours incubation, luciferase activity, Table 2, read-out: h-TGR5CRE-Luc EC50 (CRE-Luc)”, the EC50 lay within 1000 to 10000 nM.
With `CN1CCN(c2ccc(CSc3ncc(C(C)(C)c4ccc(Cl)c(Cl)c4)n3-c3ccc(F)cc3)cc2F)CC1` [1-{4-[({5-[1-(3,4-dichlorophenyl)-1-methylethyl]-1-(4-fluorophenyl)-1H-imidazol-2-yl}thio)methyl]-2-fluorophenyl}-4-methylpiperazine], the EC50 under setting [1] lay in the range of 100 to 1000 nM.
`CC(C)(c1ccc(Cl)c(Cl)c1)c1cnc(SCc2ccc(C(N)=O)c(F)c2)n1-c1ccc(F)cc1` [4-[({5-[1-(3,4-dichlorophenyl)-1-methylethyl]-1-(4-fluorophenyl)-1H-imidazol-2-yl}thio)methyl]-2-fluorobenzamide]: the EC50 under setting [1] lay within 100 to 1000 nM.
`CC(C)(c1ccc(Cl)c(Cl)c1)c1cnc(SCC2CCNCC2)n1-c1ccc(F)cc1` [4-[({5-[1-(3,4-dichlorophenyl)-1-methylethyl]-1-(4-fluorophenyl)-1H-imidazol-2-yl}thio)methyl]piperidine]: the concentration for a half-maximal effect (EC50) under setting [1] fell in the range of 1000 to 10000 nM.
Turning to `COc1ccc(C(C)(C)c2cnc(CNc3ccc(F)cc3Cl)n2-c2ccc(F)cc2)cc1OC` [N-{[5-{1-[3,4-bis(methyloxy)phenyl]-1-methylethyl}-1-(4-fluorophenyl)-1H-imidazol-2-yl]methyl}-2-chloro-4-fluoroaniline], the EC50 under setting [1] is under 100 nM.
For `COc1ccc(C(C)(C)c2cnc(SCc3ccc(F)c(Cl)c3)n2-c2ccc(F)cc2)cc1OC` [5-{1-[3,4-bis(methyloxy)phenyl]-1-methylethyl}-2-{[(3-chloro-4-fluorophenyl)methyl]thio}-1-(4-fluorophenyl)-1H-imidazole], the EC50 under setting [1] was under 100 nM.
The same measure, in the same setting: under `CC(C)(c1ccc(Cl)c(Cl)c1)c1cnc(S(=O)(=O)Cc2cc(Cl)ccc2Cl)n1-c1ccc(F)cc1` [5-[1-(3,4-dichlorophenyl)-1-methylethyl]-2-{[(2,5-dichlorophenyl)methyl]sulfonyl}-1-(4-fluorophenyl)-1H-imidazole] stands 100 to 1000 nM; under `CC(C)(O)COc1ccc(C(C)(C)c2cnc(SCc3ccc(F)cc3Cl)n2-c2ccc(F)cc2)cc1Cl` [1-[(2-chloro-4-{1-[2-{[(2-chloro-4-fluorophenyl)methyl]thio}-1-(4-fluorophenyl)-1H-imidazol-5-yl]-1-methylethyl}phenyl)oxy]-2-methylpropan-2-ol], 100 to 1000 nM.
On the same count and under the same terms, under `CC(C)(c1ccc(Cl)c(Cl)c1)c1cnc(COc2ccc(C(N)=O)cn2)n1-c1ccc(F)cc1` [6-[({5-[1-(3,4-dichlorophenyl)-1-methylethyl]-1-(4-fluorophenyl)-1H-imidazol-2-yl}methyl)oxy]pyridine-3-carboxamide] stands 100 to 1000 nM; under `CC(=O)c1ccc(OCc2ncc(C(C)(C)c3ccc(Cl)c(Cl)c3)n2-c2ccc(F)cc2)c(Cl)c1` [1-{3-chloro-4-[({5-[1-(3,4-dichlorophenyl)-1-methylethyl]-1-(4-fluorophenyl)-1H-imidazol-2-yl}methyl)oxy]phenyl}ethanone], 1000 to 10000 nM; under `COc1cc(F)ccc1-n1c(C(C)(C)c2ccc(Cl)c(Cl)c2)cnc1SCc1ccc(F)cc1Cl` [2-{[(2-chloro-4-fluorophenyl)methyl]thio}-5-[1-(3,4-dichlorophenyl)-1-methylethyl]-1-[4-fluoro-2-(methyloxy)phenyl]-1H-imidazole], 100 to 1000 nM.
Regarding `CC(C)(c1ccc(Cl)c(Cl)c1)c1cnc(/C=C/c2c(F)cccc2Cl)n1-c1ccc(F)cc1` [2-[(E)-2-(2-chloro-6-fluorophenyl)ethenyl]-5-[1-(3,4-dichlorophenyl)-1-methylethyl]-1-(4-fluorophenyl)-1H-imidazole], the EC50 under setting [1] is 1000 to 10000 nM.
As to `CC(C)(c1ccc(Cl)c(Cl)c1)c1cnc(SCc2ccc(OCCCO)c(C#N)c2)n1-c1ccc(F)cc1` [5-[({5-[1-(3,4-dichlorophenyl)-1-methylethyl]-1-(4-fluorophenyl)-1H-imidazol-2-yl}thio)methyl]-2-[(3-hydroxypropyl)oxy]benzonitrile], the EC50 under setting [1] fell in the range of 100 to 1000 nM.
The same measure, in the same setting: the value for `COc1ccc(C(C)(C)c2cnc(SCc3ccc(Cl)cc3Cl)n2-c2ccc(F)cc2)cc1OC` [5-{1-[3,4-bis(methyloxy)phenyl]-1-methylethyl}-2-{[(2,4-dichlorophenyl)methyl]thio}-1-(4-fluorophenyl)-1H-imidazole] was under 100 nM.
